According to patent US20170355708A1, “POTASSIUM CHANNEL MODULATORS” (Cadent Therapeutics, Inc., priority 2016, published 2017):

Molecular target: T1, hSK2 channels (Homo sapiens, UniProt P0DP23+Q9H2S1)
T1 construct: expressed in transfected cells; host or cells: HEK293
Experiment: Whole-cell patch-clamp recording of SK2 channel current (SC100)
Format: cell-based
Details: Stimulating Concentration required for increasing the baseline current by 100%; HEK293 cells expressing hSK2; Table 3
Procedure: The biological activity of certain compounds were determined as follows. The ionic current through small-conductance Ca^2+-activated K^+ channels (SK channels, subtype 2) is recorded using the whole-cell configuration of the patch-clamp technique in a classic patch-clamp set-up using HEK293 tissue culture cells expressing hSK2 channels as described in Kasumu et. al., Chemistry & Biology 19, 1340-1353, Oct. 26, 2012.
The SC100 value determined is defined as the Stimulating Concentration required for increasing the baseline current by 100%.

Row | SC100 uM | SMILES
1 | ++ (++ means 200 nM-1000 nM) | Cc1cc(Nc2ccc(Cl)cc2)nc(-n2ccc(C(C)(C)O)n2)c1 [Compound 145, 2-(1-(6-((4-chlorophenyl)amino)-4-methylpyridin-2-yl)-1H-pyrazol-3-yl)propan-2-ol]
2 | ++ (++ means 200 nM-1000 nM) | CC(=O)N1CCN(c2cc(Nc3ccc(F)cc3F)nc(-n3nc(C)cc3C)n2)CC1 [Compound 105, 1-(4-(6-((2,4-difluorophenyl)amino)-2-(3,5-dimethyl-1H-pyrazol-1-yl)pyrimidin-4-yl)piperazin-1-yl)ethan-1-one]
3 | +++ (+++ means <200 nM) | Cc1cc(C)n(-c2nc(Nc3ccc(F)c(F)c3)cc(N3CCOC(CO)C3)n2)n1 (stereo not drawn) [Compound 117, (4-(6-((3,4-difluorophenyl)amino)-2-(3,5-dimethyl-1H-pyrazol-1-yl)pyrimidin-4-yl)morpholin-2-yl)methanol]
4 | + (+ means >1 uM) | CC(O)c1ccn(-c2nc(Nc3ccc(F)cc3)cc(N3CC4(COC4)C3)n2)n1 (stereo not drawn) [Compound 153, 1-(1-(4-((4-fluorophenyl)amino)-6-(2-oxa-6-azaspiro[3.3]heptan-6-yl)pyrimidin-2-yl)-1H-pyrazol-3-yl)ethan-1-ol]
5 | + (+ means >1 uM) | Cc1cc(C)n(-c2nc(Nc3ccc(F)cc3F)cc(N3CCN[C@H](C(N)=O)C3)n2)n1 (single isomer, unassigned) [Compound 128, (+)-4-(6-((2,4-difluorophenyl)amino)-2-(3,5-dimethyl-1H-pyrazol-1-yl)pyrimidin-4-yl)piperazine-2-carboxamide]
6 | +++ (+++ means <200 nM) | Cc1cc(C)n(-c2nc(Nc3ccc(F)c(F)c3)cc(N3CCO[C@@H](CO)C3)n2)n1 (single isomer, unassigned) [Compound 121, (+)-(4-(6-((3,4-difluorophenyl)amino)-2-(3,5-dimethyl-1H-pyrazol-1-yl)pyrimidin-4-yl)morpholin-2-yl) methanol]
7 | ++ (++ means 200 nM-1000 nM) | Cc1cc(C)n(-c2nc(Nc3ccc(Cl)cc3)nc3c2ncn3CCO)n1 [Compound 135, 2-(2-((4-chlorophenyl)amino)-6-(3,5-dimethyl-1H-pyrazol-1-yl)-9H-purin-9-yl)ethan-1-ol]
8 | +++ (+++ means <200 nM) | CC(=O)N1CCN(c2cc(-n3nc(C)cc3C)nc(Nc3ccc(F)c(F)c3)n2)CC1 [Compound 101, 1-(4-(2-((3,4-difluorophenyl)amino)-6-(3,5-dimethyl-1H-pyrazol-1-yl)pyrimidin-4-yl)piperazin-1-yl)ethan-1-one]
9 | + (+ means >1 uM) | Cc1cc(C)n(-c2nc(Nc3ccc(F)c(F)c3)cc(N3CCOC(C(N)=O)C3)n2)n1 (stereo not drawn) [Compound 127, 4-(6-((3,4-difluorophenyl)amino)-2-(3,5-dimethyl-1H-pyrazol-1-yl)pyrimidin-4-yl)morpholine-2-carboxamide]
10 | ++ (++ means 200 nM-1000 nM) | Cc1cc(C)n(-c2cc(N3C[C@@H]4C[C@H]3CN4)nc(Nc3ccc(F)cc3F)n2)n1 (stereo in doubt) [Compound 106, 4-((1S,4S)-2,5-diazabicyclo[2.2.1]heptan-2-yl)-N-(2,4-difluorophenyl)-6-(3,5-dimethyl-1H-pyrazol-1-yl)pyrimidin-2-amine]
11 | ++ (++ means 200 nM-1000 nM) | Cc1cc(Nc2ccc(Cl)cc2)nc(-n2ccc(C(C)(C)O)n2)n1 [Compound 142, 2-(1-(4-((4-chlorophenyl)amino)-6-methylpyrimidin-2-yl)-1H-pyrazol-3-yl)propan-2-ol]
12 | ++ (++ means 200 nM-1000 nM) | CC(=O)N1CCN(c2cc(Nc3ccc(F)cc3)nc(-n3nc(C)cc3C)n2)CC1 [Compound 102, 1-(4-(2-(3,5-dimethyl-1H-pyrazol-1-yl)-6-((4-fluorophenyl)amino)pyrimidin-4-yl)piperazin-1-yl)ethan-1-one]
13 | ++ (++ means 200 nM-1000 nM) | CC(=O)N1CCN(c2cc(-n3nc(C)cc3C)nc(Nc3ccc(F)cc3F)n2)CC1 [Compound 104, 1-(4-(2-((2,4-difluorophenyl)amino)-6-(3,5-dimethyl-1H-pyrazol-1-yl)pyrimidin-4-yl)piperazin-1-yl)ethan-1-one]
14 | ++ (++ means 200 nM-1000 nM) | N#Cc1ccn(-c2nc(Nc3ccc(Cl)cc3)cc(N3CC4(COC4)C3)n2)n1 [Compound 143, 1-(4-((4-chlorophenyl)amino)-6-(2-oxa-6-azaspiro[3.3]heptan-6-yl)pyrimidin-2-yl)-1h-pyrazole-3-carbonitrile]

Same assay, conditions: Stimulating Concentration required for increasing the baseline current by 100%; HEK293 cells expressing hSK2; Table 4

Row | SMILES | SC100 (μM)
15 | Cc1cc(C)n(-c2nc(Nc3cccc(C(F)(F)F)c3)cc(C(C)O)n2)n1 (stereo not drawn) [IN10973-007-P1] | +++ (+++ means <200 nM)
16 | Cc1cc(Nc2ccc(F)cc2)nc(-n2ccc(C3CC3)n2)n1 [NSSy6921, 2-(3-cyclopropyl-1H-pyrazol-1-yl)-N-(4-fluorophenyl)-6-methylpyrimidin-4-amine] | + (+ means >1 uM)
17 | COC(C)c1cc(Nc2ccc(F)cc2F)nc(-c2nc(C)cs2)n1 (stereo not drawn) [IN11059-067-P1, N-(2,4-difluorophenyl)-6-(1-methoxyethyl)-2-(4-methylthiazol-2-yl) pyrimidin-4-amine] | + (+ means >1 uM)
18 | Cc1csc(-c2nc(Nc3ccc(F)cc3)cc(C(C)O)n2)n1 (stereo not drawn) [IN10880-091-P1, 1-(6-((4-fluorophenyl)amino)-2-(4-methylthiazol-2-yl)pyrimidin-4-yl)ethan-1-ol] | ++ (++ means 200 nM-1000 nM)
19 | Cc1ccn(-c2nc(Nc3c(C)cccc3Cl)cc(C(C)O)n2)n1 (stereo not drawn) [IN10864-081-P1] | + (+ means >1 uM)
20 | Cc1csc(-c2nc(Nc3cccc(C(F)(F)F)c3)cc(C(C)O)n2)n1 (stereo not drawn) [IN10880-092-P1] | ++ (++ means 200 nM-1000 nM)
21 | Cc1ccn(-c2nc(Nc3cccc(C(F)(F)F)c3)cc(C(C)O)n2)n1 (stereo not drawn) [IN10876-033-P1] | ++ (++ means 200 nM-1000 nM)
